{
  "source": "patent US20110230481A2",
  "about": "“DERIVATIVES OF TETRABROMOBENZIMIDAZOLE, A PROCESS FOR THE PREPARATION THEREOF, A PHARMACEUTICAL COMPOSITION COMPRISING THE SAME, A METHOD OF USING THE SAME, A METHOD FOR MODULATING OR REGULATING SERINE/THREONINE KINASES, AND SERINE/THREONINE KINASES MODULATING AGENT” (SELVITA S.A., priority 2009, published 2011)",
  "experiment_in_all_cases": "KINOMEscan Max",
  "assay_type_in_all_cases": "binding",
  "key": {"[1]": {"target": "T1, CDK8 (Homo sapiens, UniProt P49336)", "T1 construct": "purchased Ambit (KINOMEscan Max service)", "conditions": "1 μM", "summary_of_the_method": "(§1)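 Compound displacement of DNA-tagged kinase from immobilized active-site ligand; qPCR of tag as read-out.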"}, "[2]": {"target": "T2, PDPK1 (Homo sapiens, UniProt O15530)", "T2 construct": "purchased Ambit (KINOMEscan Max service)", "summary_of_the_method": "as §1"}, "[3]": {"target": "MINK (Homo sapiens, UniProt Q8N4C8)", "summary_of_the_method": "as §1"}, "[4]": {"target": "CDK11 (Homo sapiens, UniProt Q9BWU1)", "sequence (Q9BWU1 whole entry)": "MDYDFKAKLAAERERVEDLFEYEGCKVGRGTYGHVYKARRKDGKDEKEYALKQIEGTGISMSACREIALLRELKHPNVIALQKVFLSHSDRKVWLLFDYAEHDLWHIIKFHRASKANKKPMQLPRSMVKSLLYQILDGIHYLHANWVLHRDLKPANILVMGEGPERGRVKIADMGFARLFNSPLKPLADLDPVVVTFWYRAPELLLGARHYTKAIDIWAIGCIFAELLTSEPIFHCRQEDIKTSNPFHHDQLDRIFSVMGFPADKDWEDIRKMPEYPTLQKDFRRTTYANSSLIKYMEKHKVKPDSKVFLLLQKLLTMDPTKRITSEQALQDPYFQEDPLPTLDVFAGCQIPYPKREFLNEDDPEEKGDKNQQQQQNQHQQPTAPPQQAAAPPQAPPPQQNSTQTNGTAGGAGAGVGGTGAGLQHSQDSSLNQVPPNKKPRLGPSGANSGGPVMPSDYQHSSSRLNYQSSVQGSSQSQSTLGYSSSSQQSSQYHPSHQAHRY", "conditions": "1 μM", "summary_of_the_method": "as §1"}, "[5]": {"target": "T3, ERK2 (Homo sapiens, UniProt P28482)", "T3 construct": "purchased Ambit Kinomescan (contract panel, KINOMEscan Max)", "summary_of_the_method": "as §1"}, "[6]": {"target": "T4, DDR2 (Homo sapiens, UniProt Q16832)", "T4 construct": "purchased Ambit (KINOMEscan Max panel service)", "summary_of_the_method": "as §1"}, "[7]": {"target": "T5, EGFR(L747-E749del. A750P) (Homo sapiens, UniProt P00533, A750P/DEL747-749)", "T5 construct": "purchased Ambit (KINOMEscan Max panel service)", "conditions": "1 μM", "summary_of_the_method": "as §1"}, "[8]": {"target": "T6, PIK3CA(Q546K) (Homo sapiens, UniProt P42336, Q546K)", "T6 construct": "DNA tag (qPCR read-out)", "summary_of_the_method": "as §1"}, "[9]": {"target": "NEK6 (Homo sapiens, UniProt Q9HC98)", "sequence (Q9HC98 whole entry)": "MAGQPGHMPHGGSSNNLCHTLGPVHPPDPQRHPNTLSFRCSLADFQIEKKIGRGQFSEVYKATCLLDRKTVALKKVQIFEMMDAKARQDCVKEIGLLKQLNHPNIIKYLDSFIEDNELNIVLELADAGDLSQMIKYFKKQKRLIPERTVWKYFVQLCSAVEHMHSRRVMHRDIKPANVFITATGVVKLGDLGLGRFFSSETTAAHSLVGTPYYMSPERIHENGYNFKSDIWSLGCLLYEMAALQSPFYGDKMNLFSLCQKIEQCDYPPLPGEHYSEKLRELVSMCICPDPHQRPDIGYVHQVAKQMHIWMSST", "summary_of_the_method": "as §1"}, "[10]": {"target": "NDR1 (Homo sapiens, UniProt Q15208)", "sequence (Q15208 whole entry)": "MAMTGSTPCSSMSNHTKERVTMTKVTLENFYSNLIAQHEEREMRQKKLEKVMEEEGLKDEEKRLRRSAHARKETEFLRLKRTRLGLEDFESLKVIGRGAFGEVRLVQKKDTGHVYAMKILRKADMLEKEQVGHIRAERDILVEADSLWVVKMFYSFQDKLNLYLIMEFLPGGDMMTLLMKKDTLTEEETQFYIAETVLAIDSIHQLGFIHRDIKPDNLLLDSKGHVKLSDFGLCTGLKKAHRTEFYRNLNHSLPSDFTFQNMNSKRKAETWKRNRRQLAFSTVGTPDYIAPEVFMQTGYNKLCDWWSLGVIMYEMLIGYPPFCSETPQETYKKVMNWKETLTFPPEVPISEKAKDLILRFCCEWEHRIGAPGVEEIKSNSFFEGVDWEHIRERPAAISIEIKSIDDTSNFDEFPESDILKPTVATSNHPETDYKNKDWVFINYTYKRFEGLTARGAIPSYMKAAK", "summary_of_the_method": "as §1"}, "[11]": {"target": "T7, CDKL5 (Homo sapiens, UniProt O76039)", "T7 construct": "DNA tag (qPCR read-out)", "summary_of_the_method": "as §1"}, "[12]": {"target": "T8, RIPK1 (Homo sapiens, UniProt Q13546)", "T8 construct": "DNA tag (qPCR read-out)", "summary_of_the_method": "as §1"}, "[13]": {"target": "ABL1(E255K)-phosphorylated) (Homo sapiens, UniProt P00519, E255K)", "summary_of_the_method": "as §1"}, "[14]": {"target": "ABL1(F317L)-phosphorylated (Homo sapiens, UniProt P00519, F317L)", "summary_of_the_method": "as §1"}, "[15]": {"target": "T9, MERTK (Homo sapiens, UniProt Q12866)", "T9 construct": "purchased Ambit (KINOMEscan Max service)", "summary_of_the_method": "as §1"}, "[16]": {"target": "T10, CSNK2A2 (Homo sapiens, UniProt P19784)", "T10 construct": "DNA tag (qPCR read-out)", "summary_of_the_method": "as §1"}, "[17]": {"target": "T11, KIT(A829P) (Homo sapiens, UniProt P10721, A829P)", "T11 construct": "purchased Ambit Kinomescan (contract panel)", "T11 sequence (P10721 26-976 A829P)": "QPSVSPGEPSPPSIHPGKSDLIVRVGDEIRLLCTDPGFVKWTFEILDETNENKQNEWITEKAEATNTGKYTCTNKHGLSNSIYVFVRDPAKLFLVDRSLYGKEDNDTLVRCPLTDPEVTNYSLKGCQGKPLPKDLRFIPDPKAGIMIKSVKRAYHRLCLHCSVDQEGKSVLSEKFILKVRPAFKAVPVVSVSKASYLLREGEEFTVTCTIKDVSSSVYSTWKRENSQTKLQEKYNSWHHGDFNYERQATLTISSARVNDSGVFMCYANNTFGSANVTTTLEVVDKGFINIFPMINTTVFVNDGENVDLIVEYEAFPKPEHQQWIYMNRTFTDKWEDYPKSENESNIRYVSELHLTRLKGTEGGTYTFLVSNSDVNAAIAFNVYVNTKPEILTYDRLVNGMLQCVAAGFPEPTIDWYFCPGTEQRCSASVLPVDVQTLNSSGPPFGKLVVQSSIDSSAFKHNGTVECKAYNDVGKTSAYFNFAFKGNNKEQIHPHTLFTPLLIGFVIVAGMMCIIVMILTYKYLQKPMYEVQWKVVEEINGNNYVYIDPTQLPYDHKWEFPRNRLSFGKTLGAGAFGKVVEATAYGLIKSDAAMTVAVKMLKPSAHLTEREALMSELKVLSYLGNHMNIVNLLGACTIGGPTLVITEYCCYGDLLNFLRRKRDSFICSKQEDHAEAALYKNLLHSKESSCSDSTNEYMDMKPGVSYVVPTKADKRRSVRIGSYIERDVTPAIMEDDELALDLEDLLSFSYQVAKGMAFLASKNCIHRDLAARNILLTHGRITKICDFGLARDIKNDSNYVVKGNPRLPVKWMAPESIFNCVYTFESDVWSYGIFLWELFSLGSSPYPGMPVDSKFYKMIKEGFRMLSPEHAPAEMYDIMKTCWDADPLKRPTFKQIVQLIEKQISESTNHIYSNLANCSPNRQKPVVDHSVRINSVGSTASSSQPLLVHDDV", "summary_of_the_method": "as §1"}, "[18]": {"target": "T12, TNNI3K (Homo sapiens, UniProt Q59H18)", "T12 construct": "purchased Ambit Kinomescan (contract screening service)", "summary_of_the_method": "as §1"}, "[19]": {"target": "T13, BRAF (Homo sapiens, UniProt P15056)", "T13 construct": "DNA tag (qPCR label); purchased Ambit Kinomescan (contract screening)", "summary_of_the_method": "as §1"}, "[20]": {"target": "T14, TAOK2 (Homo sapiens, UniProt Q9UL54)", "T14 construct": "DNA tag (qPCR read-out)", "summary_of_the_method": "as §1"}, "[21]": {"target": "T15, CHEK1 (Homo sapiens, UniProt O14757)", "T15 construct": "DNA tag (qPCR read-out)", "T15 sequence (O14757 whole entry)": "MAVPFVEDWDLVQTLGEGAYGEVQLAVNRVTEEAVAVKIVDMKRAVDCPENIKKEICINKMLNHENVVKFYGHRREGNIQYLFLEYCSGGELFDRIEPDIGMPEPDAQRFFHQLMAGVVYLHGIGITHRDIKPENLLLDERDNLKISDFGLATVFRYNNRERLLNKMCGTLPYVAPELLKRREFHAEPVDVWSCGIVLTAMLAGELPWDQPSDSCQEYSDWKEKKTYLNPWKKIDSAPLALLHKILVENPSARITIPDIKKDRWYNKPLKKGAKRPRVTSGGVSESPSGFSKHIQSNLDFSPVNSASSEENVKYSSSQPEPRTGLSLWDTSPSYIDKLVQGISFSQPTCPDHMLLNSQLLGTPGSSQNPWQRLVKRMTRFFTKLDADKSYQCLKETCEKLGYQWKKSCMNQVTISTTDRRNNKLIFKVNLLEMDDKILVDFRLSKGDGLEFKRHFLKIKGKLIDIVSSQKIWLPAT", "conditions": "1 μM", "summary_of_the_method": "as §1"}, "[22]": {"target": "T16, EPHB4 (Homo sapiens, UniProt P54760)", "T16 construct": "purchased Ambit (KINOMEscan Max panel service)", "summary_of_the_method": "as §1"}, "[23]": {"target": "T17, MAP3K15 (Homo sapiens, UniProt Q6ZN16)", "T17 construct": "purchased Ambit Kinomescan (contract panel)", "summary_of_the_method": "as §1"}, "[24]": {"target": "T18, EGFR (Homo sapiens, UniProt P00533)", "T18 construct": "purchased Ambit (KINOMEscan Max panel service)", "conditions": "1 μM", "summary_of_the_method": "as §1"}, "[25]": {"target": "T19, EGFR(E746-A750del) (Homo sapiens, UniProt P00533, DEL746-750)", "T19 construct": "purchased Ambit (KINOMEscan Max service)", "conditions": "1 μM", "summary_of_the_method": "as §1"}, "[26]": {"target": "T20, SNRK (Homo sapiens, UniProt Q9NRH2)", "T20 construct": "DNA tag (qPCR read-out)", "summary_of_the_method": "as §1"}, "[27]": {"target": "T21, SIK (Homo sapiens, UniProt P57059)", "T21 construct": "DNA tag (qPCR read-out)", "conditions": "1 μM", "summary_of_the_method": "as §1"}, "[28]": {"target": "T22, PIP5K2B (Homo sapiens, UniProt P78356)", "T22 construct": "purchased Ambit Kinomescan (contract screening)", "summary_of_the_method": "as §1"}, "[29]": {"target": "T23, DAPK1 (Homo sapiens, UniProt P53355)", "T23 construct": "DNA tag (qPCR read-out)", "T23 sequence (P53355 whole entry)": "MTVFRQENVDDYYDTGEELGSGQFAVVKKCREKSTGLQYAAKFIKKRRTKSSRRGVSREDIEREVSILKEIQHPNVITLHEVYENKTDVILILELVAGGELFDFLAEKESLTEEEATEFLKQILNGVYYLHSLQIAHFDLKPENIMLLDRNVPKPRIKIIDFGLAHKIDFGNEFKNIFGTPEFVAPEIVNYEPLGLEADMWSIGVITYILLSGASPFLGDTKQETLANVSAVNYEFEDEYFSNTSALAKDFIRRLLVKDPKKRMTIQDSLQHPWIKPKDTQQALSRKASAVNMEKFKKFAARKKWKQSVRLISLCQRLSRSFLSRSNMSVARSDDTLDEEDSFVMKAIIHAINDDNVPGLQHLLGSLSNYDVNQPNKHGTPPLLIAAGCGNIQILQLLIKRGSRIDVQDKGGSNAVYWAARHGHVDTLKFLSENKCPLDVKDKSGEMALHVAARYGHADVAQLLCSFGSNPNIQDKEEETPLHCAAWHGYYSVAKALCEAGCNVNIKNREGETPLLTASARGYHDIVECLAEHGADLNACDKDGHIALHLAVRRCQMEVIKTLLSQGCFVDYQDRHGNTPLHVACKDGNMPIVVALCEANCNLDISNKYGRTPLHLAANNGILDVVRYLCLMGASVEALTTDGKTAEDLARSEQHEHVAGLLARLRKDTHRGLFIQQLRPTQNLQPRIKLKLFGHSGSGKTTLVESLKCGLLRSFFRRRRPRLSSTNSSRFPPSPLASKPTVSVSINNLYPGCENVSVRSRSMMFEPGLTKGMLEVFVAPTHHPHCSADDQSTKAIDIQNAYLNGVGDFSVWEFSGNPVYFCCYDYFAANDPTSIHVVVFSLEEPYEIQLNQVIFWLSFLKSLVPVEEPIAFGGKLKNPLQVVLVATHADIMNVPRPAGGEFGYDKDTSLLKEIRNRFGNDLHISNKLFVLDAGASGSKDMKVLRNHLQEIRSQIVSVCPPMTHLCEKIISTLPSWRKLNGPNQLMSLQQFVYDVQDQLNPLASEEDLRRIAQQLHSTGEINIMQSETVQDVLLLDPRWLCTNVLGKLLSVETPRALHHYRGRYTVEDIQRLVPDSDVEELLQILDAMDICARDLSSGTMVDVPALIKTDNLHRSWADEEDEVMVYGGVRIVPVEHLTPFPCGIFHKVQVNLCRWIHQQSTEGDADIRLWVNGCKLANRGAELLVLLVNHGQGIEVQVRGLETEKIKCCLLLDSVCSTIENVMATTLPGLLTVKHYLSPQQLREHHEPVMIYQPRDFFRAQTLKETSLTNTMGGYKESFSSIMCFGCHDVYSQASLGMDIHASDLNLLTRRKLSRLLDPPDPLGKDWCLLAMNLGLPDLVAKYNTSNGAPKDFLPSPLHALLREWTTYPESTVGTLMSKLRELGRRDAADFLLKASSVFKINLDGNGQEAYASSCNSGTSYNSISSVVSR", "summary_of_the_method": "as §1"}, "[30]": {"target": "MYO3A (Homo sapiens, UniProt Q8NEV4)", "summary_of_the_method": "as §1"}, "[31]": {"target": "T24, DAPK2 (Homo sapiens, UniProt Q9UIK4)", "T24 construct": "DNA tag (qPCR read-out)", "summary_of_the_method": "as §1"}, "[32]": {"target": "T25, PAK7 (Homo sapiens, UniProt Q9P286)", "T25 construct": "DNA tag (qPCR read-out)", "T25 sequence (Q9P286 whole entry)": "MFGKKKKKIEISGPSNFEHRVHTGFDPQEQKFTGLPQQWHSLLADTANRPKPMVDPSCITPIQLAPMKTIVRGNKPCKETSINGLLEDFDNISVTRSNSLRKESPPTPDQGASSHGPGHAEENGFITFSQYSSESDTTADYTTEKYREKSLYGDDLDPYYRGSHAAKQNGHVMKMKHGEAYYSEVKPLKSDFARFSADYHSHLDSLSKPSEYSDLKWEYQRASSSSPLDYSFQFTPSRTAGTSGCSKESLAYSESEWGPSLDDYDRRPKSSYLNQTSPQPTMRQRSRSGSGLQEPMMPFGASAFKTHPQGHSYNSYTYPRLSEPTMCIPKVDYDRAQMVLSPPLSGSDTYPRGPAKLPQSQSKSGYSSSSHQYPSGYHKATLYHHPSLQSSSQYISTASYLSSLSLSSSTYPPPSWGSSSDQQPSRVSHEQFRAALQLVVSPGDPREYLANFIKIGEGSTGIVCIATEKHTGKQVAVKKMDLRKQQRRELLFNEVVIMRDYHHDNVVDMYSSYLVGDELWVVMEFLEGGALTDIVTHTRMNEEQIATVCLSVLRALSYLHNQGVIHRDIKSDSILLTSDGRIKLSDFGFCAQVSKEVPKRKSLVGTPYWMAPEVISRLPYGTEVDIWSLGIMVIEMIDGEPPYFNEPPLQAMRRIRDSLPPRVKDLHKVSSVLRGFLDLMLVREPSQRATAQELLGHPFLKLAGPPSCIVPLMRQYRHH", "summary_of_the_method": "as §1"}, "[33]": {"target": "T26, AMPK-alpha2 (Homo sapiens, UniProt P54646)", "T26 construct": "DNA tag (qPCR label); purchased Ambit Kinomescan (contract screening)", "summary_of_the_method": "as §1"}, "[34]": {"target": "ACVR1 (Homo sapiens, UniProt Q04771)", "summary_of_the_method": "as §1"}},
  "data": [
    {"compound": "NCCCNc1nc2c(Br)c(Br)c(Br)c(Br)c2[nH]1", "note": "[Compound 11, N-(3-aminopropyl)-4,5,6,7-tetrabromo-1H-benzo[d]imidazol-2-amine]", "values": [
      {"measurement": "% binding", "setting": "[1]", "result": 68, "unit": "%"},
      {"measurement": "remaining binding at 1 µM", "setting": "[2]", "result": 84, "unit": "%"},
      {"measurement": "remaining binding at 1 µM", "setting": "[3]", "result": 100, "unit": "%"},
      {"measurement": "% binding", "setting": "[4]", "result": 74, "unit": "%"},
      {"measurement": "remaining binding at 1 µM", "setting": "[5]", "result": 100, "unit": "%"},
      {"measurement": "remaining binding at 1 µM", "setting": "[6]", "result": 100, "unit": "%"},
      {"measurement": "% binding", "setting": "[7]", "result": 100, "unit": "%"},
      {"measurement": "remaining binding at 1 µM", "setting": "[8]", "result": 100, "unit": "%"},
      {"measurement": "remaining binding at 1 µM", "setting": "[9]", "result": 100, "unit": "%"},
      {"measurement": "remaining binding at 1 µM", "setting": "[10]", "result": 100, "unit": "%"},
      {"measurement": "remaining binding at 1 µM", "setting": "[11]", "result": 25, "unit": "%"},
      {"measurement": "remaining binding at 1 µM", "setting": "[12]", "result": 100, "unit": "%"},
      {"measurement": "remaining binding at 1 µM", "setting": "[13]", "result": 95, "unit": "%"},
      {"measurement": "remaining binding at 1 µM", "setting": "[14]", "result": 100, "unit": "%"},
      {"measurement": "remaining binding at 1 µM", "setting": "[15]", "result": 70, "unit": "%"},
      {"measurement": "remaining binding at 1 µM", "setting": "[16]", "result": 90, "unit": "%"},
      {"measurement": "remaining binding at 1 µM", "setting": "[17]", "result": 100, "unit": "%"},
      {"measurement": "remaining binding at 1 µM", "setting": "[18]", "result": 100, "unit": "%"},
      {"measurement": "remaining binding at 1 µM", "setting": "[19]", "result": 100, "unit": "%"},
      {"measurement": "remaining binding at 1 µM", "setting": "[20]", "result": 100, "unit": "%"},
      {"measurement": "% binding", "setting": "[21]", "result": 88, "unit": "%"},
      {"measurement": "remaining binding at 1 µM", "setting": "[22]", "result": 100, "unit": "%"},
      {"measurement": "remaining binding at 1 µM", "setting": "[23]", "result": 100, "unit": "%"},
      {"measurement": "% binding", "setting": "[24]", "result": 100, "unit": "%"},
      {"measurement": "% binding", "setting": "[25]", "result": 72, "unit": "%"},
      {"measurement": "remaining binding at 1 µM", "setting": "[26]", "result": 100, "unit": "%"},
      {"measurement": "% binding", "setting": "[27]", "result": 100, "unit": "%"},
      {"measurement": "remaining binding at 1 µM", "setting": "[28]", "result": 97, "unit": "%"},
      {"measurement": "remaining binding at 1 µM", "setting": "[29]", "result": 90, "unit": "%"},
      {"measurement": "remaining binding at 1 µM", "setting": "[30]", "result": 100, "unit": "%"},
      {"measurement": "remaining binding at 1 µM", "setting": "[31]", "result": 90, "unit": "%"},
      {"measurement": "remaining binding at 1 µM", "setting": "[32]", "result": 90, "unit": "%"},
      {"measurement": "remaining binding at 1 µM", "setting": "[33]", "result": 100, "unit": "%"},
      {"measurement": "remaining binding at 1 µM", "setting": "[34]", "result": 100, "unit": "%"}
    ]}
  ]
}
